According to patent US12133900B2, “Synthesis and composition of amino acid linking groups conjugated to compounds used for the targeted imaging of tumors” (Purdue Research Foundation, priority 2013, dated 2024):

Columns and labels:
[1] = system: folate receptor negative A549 tumor xenografts; experiment: Whole body imaging and biodistribution, folate receptor-negative A549 tumor xenografts; assay type: in vivo, mice; details: for specificity for folate receptor (conclusion): FR-negative A549 xenografts
Protocol: Seven-week-old female nu/nu mice were inoculated subcutaneously with A549 cells (1.0×10^6/mouse in RPM11640 medium) on the shoulder. Growth of the tumors was measured in perpendicular directions every 2 days using a caliper (body weights were monitored on the same schedule), and the volumes of the tumors were calculated as 0.5×L×W^2 (L=longest axis and W=axis perpendicular to L in millimeters). Once tumors reached between 400 and 500 mm3 in volume, animals (6 mice/group) were intravenously injected with 10 nmol of OTL-0038 in phosphate buffered saline (100 μL). After 2.5 h, animals were sacrificed by CO2 asphyxiation. Whole body imaging (intact tumor) experiments were then performed using a Caliper IVIS Lumina II Imaging Station with Living Image 4.0 software (PerkinElmer Inc, MA). Settings for imaging:—lamp level: medium; excitation: 745 nm; emission: ICG (indocyanine green); epi illumination; binning: 4 (M), FOV=12.5; f-stop=2; acquisition time=1 s.
Following whole body imaging, animals were dissected and selected tissues (heart, lung, liver, spleen, kidneys, stomach, small intestine, large intestine, muscle, skin, tumor) were analyzed for fluorescence activity using IVIS imager as before. Settings for imaging:—lamp level: medium; excitation: 745 nm; emission: ICG; epi illumination; binning: 4 (M), FOV=12.5; f-stop=2; acquisition time=1 s.
Seven-week-old female nu/nu mice were inoculated subcutaneously with KB (1.0×10^6/mouse in RPM11640 medium), IGROV (5.0×10^6/mouse in 50% high concentrated matrigel+RPM11640 medium), SKOV3 (5.0×10^6/mouse in RPM11640 medium), OVCAR3 (5.0×10^6/mouse in RPM11640 medium), MDA-MB231 (1.0×10^6/mouse in RPM11640 medium), M109 (1.0×10^6/mouse in RPM11640 medium) or A549 cells (2.0×10^6/mouse in RPM11640 medium) on the shoulder. Growth of the tumors was measured in perpendicular directions every 2 days using a caliper (body weights were monitored on the same schedule), and the volumes of the tumors were calculated as 0.5×L×W^2 (L=longest axis and W=axis perpendicular to L in millimeters). Once tumors reached approximately 300-400 mm3 in volume, animals (3-5 mice/group) were intravenously injected with the compound of interest in PBS (for dose escalation in KB tumor model: 0.3-90 nmol, for time dependent in KB tumor model: 2 or 10 nmol, and for general whole body imaging and biodistribution for all tumor models: 2 nmol, in 100 μL in PBS per mouse). For whole body imaging and biodistribution studies, animals were euthanized 2 hours after administration of the compound of interest by CO2 asphyxiation. For time dependent studies, animals were imaged under anesthesia using isoflurane. Whole body imaging (intact tumor) experiments was then performed using a Caliper IVIS Lumina II Imaging Station with Living Image 4.0 software (PerkinElmer Inc, MA).
(§1) Following whole body imaging, animals were dissected and selected tissues (heart, lung, liver, spleen, kidneys, stomach, small intestine, large intestine, muscle, skin, and tumor) were analyzed for fluorescence activity using IVIS imager using same settings as in whole body imaging.

[2] = Toxicity in healthy nude mice; assay type: in vivo
Protocol: Seven-week-old healthy female nude mice (5 mice/group) were administered with 1 μmol of freshly prepared OTL-0038 or OTL-0039 dissolved in 100 μL of phosphate buffered saline via tail vein injection on day zero. Body weights and clinical observations were monitored prior to dosing and daily thereafter from day zero to 7. Any animals with a body weight loss of 20% or more over two consecutive days would be euthanized, but this was not necessary. The animals were euthanized by CO2 asphyxiation on day 7 and selected tissues (brain, heart, lung, liver, spleen, kidney, stomach, small intestine, large intestine, muscle, skin) were collected into vials containing 4% formalin. Formalin fixed tissues were sectioned into 10 μm thick sections and mounted onto Superfrost Plus™ slides (Fisher Scientific, Pittsburgh Pa.). After staining the slides with H&E, immunohistochemistry (IHC) analysis of the tissues was conducted to determine to the toxicity of OTL-0038 and OTL-0039.

[3] = system: FR-positive SKOV3 orthotopic tumor; experiment: Imaging and biodistribution, SKOV3 ovarian orthotopic model; assay type: in vivo, mice; details: 2 nmol, 2 h
Protocol: Ovarian cancer was developed through surgical implantation of ovarian cancer cell lines near the ovarian bursa of the mouse. Seven-week-old female athymic nude mice were given 1-5% isoflurane for anesthesia and subcutaneous injection of 5 mg/kg meloxicam preoperatively for analgesia. The mice were placed dorsal side up and washed above the right ovary (just lateral to the epaxial muscles and ˜1.15 cm caudal to the rib cage) with a chlorhexidine scrub to ensure a sterile area for incision. After an insertion was made using scalpel through the skin, the peritoneal lining was lifted to make a small incision using a scissor and widened using a forceps. The ovarian fat pad was carefully lifted out and placed on a wetted gauze pad adjacent to the incision. Ovarian cancer cells (50,000 cells in 5 μL) were injected between the bursa and the ovary using a 30 gage needle. After placing the ovarian fat pad back into the body cavity, the body wall was closed using 3-0 or 4-0 vicryl and the skin was closed using staples.
as §1

CC1(C)C(/C=C/C2=C(Oc3ccc(C[C@H](NC(=O)c4ccc(NCc5cnc6nc(N)[nH]c(=O)c6n5)cc4)C(=O)[O-])cc3)C(=C/C=C3\N(CCCCS(=O)(=O)[O-])c4ccc(S(=O)(=O)[O-])cc4C3(C)C)/CCC2)=[N+](CCCCS(=O)(=O)[O-])c2ccc(S(=O)(=O)[O-])cc21.[H+].[H+].[H+].[H+] [OTL-0038, Pte-Tyr-S0456]
tissue biodistribution ([1]; 2 nmol i.v., 2 h): no fluorescence was observed in FR-negative tumors
whole body imaging: accumulation ([1]; 2 nmol i.v., 2 h): did not accumulated in the FR-negative tumors
whole body imaging: accumulation ([1]; 10 nmol i.v., 2.5 h): did not accumulated in the folate receptor negative tumors
specificity for folate receptor (conclusion) [1]: highly specific for folate receptor
specificity for folate receptor (conclusion) ([1]; listed as OTL38): highly specific for FR
toxicity (conclusion) ([2]; 1 μmol (1000× clinical dose)): not toxic to animals
skin colour immediately after the injection ([2]; 1 μmol tail vein): became green
activity and behaviour ([2]; 1 μmol tail vein, day 0 to 7): behaved normally throughout the study
body weights over the course of the study ([2]; 1 μmol tail vein, day 0 to 7): remained stable
lesions in tissues (IHC data) ([2]; 1 μmol tail vein, day 7): no lesions identified in any tissues
accumulation (tissue biodistribution) [3]: accumulated mainly in the ovary with FR-positive SKOV3 orthotopic tumor
tumor-to-normal tissue ratios [3]: excellent tumor-to-normal tissue ratios
